In publication PMC3630508 (Molecular immunology, 2012):

Columns and labels:
[1] = aqueous solubility; qualitative, data not shown
complement activation = assay type: in vivo; conditions: 20 mg E23A intra-peritoneal, male Wistar rats, one hour

SMILES	solubility [1]	adverse effects / overt toxicity upon necropsy (complement activation)
CC[C@H](C)[C@H](N)C(=O)N[C@@H](C)C(=O)N[C@@H](CC(C)C)C(=O)N[C@H](C(=O)N[C@@H](CC(C)C)C(=O)N[C@@H](CCC(=O)O)C(=O)N1CCC[C@H]1C(=O)N[C@H](C(=O)N[C@@H](CS)C(=O)N[C@@H](CS)C(=O)N[C@@H](CCC(N)=O)C(=O)N[C@@H](CCC(=O)O)C(=O)N[C@@H](CCCNC(=N)N)C(=O)N[C@@H](C)C(=O)N[C@@H](C)C(=O)O)[C@@H](C)CC)[C@@H](C)CC [PA]	aqueous solubility of the compound was significantly improved	–
CC[C@H](C)[C@H](NC(=O)[C@H](C)NC(=O)[C@@H]1CCCN1)C(=O)N[C@@H](CS)C(=O)N[C@@H](CCC(N)=O)C(=O)N[C@@H](CCCNC(=N)N)C(=O)N[C@@H](C)C(=O)N[C@H](C(=O)N[C@@H](C)C(=O)N[C@H](C(=O)N[C@@H](CC(C)C)C(=O)NCC(=O)N[C@H](C(=O)N[C@H](C(=O)NCC(=O)N[C@@H](CO)C(=O)N[C@@H](CC(N)=O)C(=O)N[C@H](C(=O)N[C@@H](CO)C(=O)NCC(=O)N[C@H](C(=O)N[C@H](C(=O)N[C@@H](CCC(=O)O)C(=O)N[C@H](C(=O)N[C@@H](C)C(=O)N[C@@H](C)C(=O)N[C@@H](CS)C(=O)N[C@H](C(=O)N[C@@H](CC(C)C)C(=O)N[C@@H](CC(C)C)C(=O)O)[C@@H](C)CC)[C@@H](C)CC)[C@@H](C)O)[C@@H](C)O)[C@@H](C)O)C(C)C)[C@@H](C)O)[C@@H](C)O)[C@@H](C)O [E23A]	relative insolubility	no overt adverse effects
